ChEMBL document CHEMBL1201862, “PubChem BioAssay data set” (2004)
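Where inhibition never reached the appropriate level, the endpoint shown equals the highest concentration tested. Otherwise, values were interpolated linearly from a five-concentration, 48-hour dose response in 96-well plates. The concentration for 50% growth inhibition is given as GI50.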 The source made the active and inactive calls. Rule as the data show it: active = GI50 up to about 1.1 µM and inactive = higher.

Experiments:
Experiment in all cases: growth of human tumour cells (NCI), 48 h
A498 = system: A498
CAKI-1 = system: CAKI-1
HL-60 = system: HL-60
HOP-62 = system: HOP-62
MCF7 = system: MCF7
MDA-MB-231 = system: MDA-MB-231
MDA-N = system: MDA-N
MOLT-4 = system: MOLT-4
NCI-H460 = system: NCI-H460
OVCAR-4 = system: OVCAR-4
RPMI-8226 = system: RPMI-8226
RXF 393 = system: RXF 393
SF-295 = system: SF-295
SF-539 = system: SF-539
SK-OV-3 = system: SK-OV-3
SNB-19 = system: SNB-19
U-251 = system: U-251
UACC-257 = system: UACC-257
UACC-62 = system: UACC-62

SMILES | GI50 (A498) | GI50 (CAKI-1) | GI50 (HL-60) | GI50 (HOP-62) | GI50 (MCF7) | GI50 (MDA-MB-231) | GI50 (MDA-N) | GI50 (MOLT-4) | GI50 (NCI-H460) | GI50 (OVCAR-4) | GI50 (RPMI-8226) | GI50 (RXF 393) | GI50 (SF-295) | GI50 (SF-539) | GI50 (SK-OV-3) | GI50 (SNB-19) | GI50 (U-251) | GI50 (UACC-257) | GI50 (UACC-62)
Nc1ccc(-c2ccc(Nc3cc(S(=O)(=O)O)c(N)c4c3C(=O)c3ccccc3C4=O)cc2)c(S(=O)(=O)O)c1 | > 100 µM (inactive) | > 100 µM (inactive) | > 100 µM (inactive) | > 100 µM (inactive) | > 100 µM (inactive) | > 100 µM (inactive) | > 100 µM (inactive) | 41.8 µM (inactive) | > 100 µM (inactive) | > 100 µM (inactive) | > 100 µM (inactive) | > 100 µM (inactive) | > 100 µM (inactive) | > 100 µM (inactive) | > 100 µM (inactive) | > 100 µM (inactive) | > 100 µM (inactive) | > 100 µM (inactive) | > 100 µM (inactive)
CC(=O)Nc1ccc(-c2nc3ccccc3s2)cc1Cl | 5.68 µM (inactive) | 56.5 µM (inactive) | > 100 µM (inactive) | 22.7 µM (inactive) | < 0.0399 µM (active) | 67.8 µM (inactive) | > 100 µM (inactive) | > 83.4 µM (inactive) | – | > 100 µM (inactive) | > 100 µM (inactive) | 26.5 µM (inactive) | 41.9 µM (inactive) | 16.3 µM (inactive) | 40.6 µM (inactive) | 67.5 µM (inactive) | > 84.1 µM (inactive) | > 41.1 µM (inactive) | > 73.5 µM (inactive)
CC(C)(C)C(=O)C(C#N)C(=O)C(C)(C)C | > 100 µM (inactive) | > 100 µM (inactive) | > 100 µM (inactive) | > 100 µM (inactive) | > 100 µM (inactive) | > 100 µM (inactive) | > 100 µM (inactive) | > 100 µM (inactive) | > 100 µM (inactive) | > 100 µM (inactive) | > 100 µM (inactive) | > 100 µM (inactive) | > 100 µM (inactive) | > 100 µM (inactive) | > 100 µM (inactive) | > 100 µM (inactive) | > 100 µM (inactive) | > 100 µM (inactive) | –
Cc1cccc2c(N)c3cccc(C(=O)NCCNCCN)c3nc12 | 23.7 µM (inactive) | 3.8 µM (inactive) | 8.83 µM (inactive) | 0.533 µM (active) | 0.369 µM (active) | 1.96 µM (inactive) | 16 µM (inactive) | 0.0649 µM (active) | 0.558 µM (active) | 2.67 µM (inactive) | 9.55 µM (inactive) | 12.6 µM (inactive) | 3.68 µM (inactive) | 1.61 µM (inactive) | 26.9 µM (inactive) | 1.16 µM (inactive) | 0.736 µM (active) | 26.2 µM (inactive) | 7.4 µM (inactive)
COc1ccccc1CC(=O)C(O)(C(F)(F)F)C(F)(F)F | > 100 µM (inactive) | > 100 µM (inactive) | > 100 µM (inactive) | > 100 µM (inactive) | > 100 µM (inactive) | > 100 µM (inactive) | > 100 µM (inactive) | > 100 µM (inactive) | > 100 µM (inactive) | > 100 µM (inactive) | > 100 µM (inactive) | > 100 µM (inactive) | > 100 µM (inactive) | > 100 µM (inactive) | > 100 µM (inactive) | > 100 µM (inactive) | > 100 µM (inactive) | > 100 µM (inactive) | > 100 µM (inactive)
CC[C@H](C)[C@H]1NC(=O)[C@@H](NC(=O)[C@@H](CC(C)C)N(C)CC2CCCN2C(=O)C(C)=O)[C@@H](C)OC(=O)[C@H](Cc2ccc(OC)cc2)N(C)C(=O)C2CCCN2C(=O)[C@H](CC(C)C)NC(=O)[C@@H](C)C(=O)[C@H](C(C)C)OC(=O)C[C@@H]1O (stereo not given in full) | 0.00471 µM (active) | 0.0221 µM (active) | 0.00476 µM (active) | 0.00361 µM (active) | < 0.0025 µM (active) | 0.00432 µM (active) | 0.00508 µM (active) | < 0.0025 µM (active) | 0.00381 µM (active) | < 0.0025 µM (active) | 0.00313 µM (active) | < 0.0025 µM (active) | 0.00371 µM (active) | < 0.0025 µM (active) | 0.00376 µM (active) | 0.00356 µM (active) | < 0.0025 µM (active) | 0.00443 µM (active) | 0.00294 µM (active)
c1cncc(CNCc2cccnc2)c1 | > 100 µM (inactive) | > 100 µM (inactive) | 3.6 µM (inactive) | > 100 µM (inactive) | > 100 µM (inactive) | > 100 µM (inactive) | > 100 µM (inactive) | > 100 µM (inactive) | > 100 µM (inactive) | > 100 µM (inactive) | > 100 µM (inactive) | > 100 µM (inactive) | > 100 µM (inactive) | > 100 µM (inactive) | > 100 µM (inactive) | > 100 µM (inactive) | > 100 µM (inactive) | > 100 µM (inactive) | > 100 µM (inactive)
Clc1nc(-c2ccccc2)nc(Cl)c1Cl | 17.6 µM (inactive) | 3.09 µM (inactive) | 13.2 µM (inactive) | 18 µM (inactive) | 8.15 µM (inactive) | 13.7 µM (inactive) | 13 µM (inactive) | 3.1 µM (inactive) | 18.7 µM (inactive) | 16 µM (inactive) | 4.29 µM (inactive) | 7.85 µM (inactive) | 17.3 µM (inactive) | 18.4 µM (inactive) | 14 µM (inactive) | 17.1 µM (inactive) | 8.28 µM (inactive) | 14.6 µM (inactive) | 13.7 µM (inactive)
CC(C)(C)OC(=O)NCCNC(=O)CN(CC(=O)O)C1CCCCC1N(CC(=O)O)CC(=O)O (stereo not given) | > 100 µM (inactive) | > 100 µM (inactive) | > 100 µM (inactive) | > 100 µM (inactive) | > 100 µM (inactive) | > 100 µM (inactive) | > 100 µM (inactive) | > 100 µM (inactive) | > 100 µM (inactive) | > 100 µM (inactive) | > 100 µM (inactive) | > 100 µM (inactive) | > 100 µM (inactive) | > 100 µM (inactive) | > 100 µM (inactive) | > 100 µM (inactive) | > 100 µM (inactive) | > 100 µM (inactive) | > 100 µM (inactive)
O=C(/C=C1\C[C@H]2C=Nc3ccccc3C(=O)N2C1)NCCCNC(=O)/C=C1\C[C@H]2C=Nc3ccccc3C(=O)N2C1 | 17.5 µM (inactive) | 13.3 µM (inactive) | 8.73 µM (inactive) | 16.6 µM (inactive) | 16.7 µM (inactive) | 16.1 µM (inactive) | 17.1 µM (inactive) | 2.62 µM (inactive) | 18.6 µM (inactive) | 18.2 µM (inactive) | 10.1 µM (inactive) | 13.6 µM (inactive) | 19 µM (inactive) | 18.3 µM (inactive) | 18.5 µM (inactive) | 16.4 µM (inactive) | 13.6 µM (inactive) | 16.5 µM (inactive) | 15.7 µM (inactive)
O=C1Sc2cc3ccccc3cc2C(=O)Sc2ccc(Br)cc21 | 19 µM (inactive) | 4.73 µM (inactive) | 3.9 µM (inactive) | 6.21 µM (inactive) | 4.46 µM (inactive) | 4.09 µM (inactive) | 4.51 µM (inactive) | 3.55 µM (inactive) | 7.26 µM (inactive) | 14.6 µM (inactive) | 1.65 µM (inactive) | 2.48 µM (inactive) | 13.1 µM (inactive) | 7.93 µM (inactive) | 15.5 µM (inactive) | 15.2 µM (inactive) | 2.06 µM (inactive) | 5.81 µM (inactive) | 4.93 µM (inactive)
CC[S+]([O-])c1c2cc(OC)ccc2nc2ccc(OC)cc12 (stereo not given) | 17.3 µM (inactive) | 5.06 µM (inactive) | 4.99 µM (inactive) | 21.5 µM (inactive) | 2.84 µM (inactive) | 5.62 µM (inactive) | 4.71 µM (inactive) | 4.07 µM (inactive) | 29.5 µM (inactive) | 17 µM (inactive) | 3.45 µM (inactive) | 4.71 µM (inactive) | 27.1 µM (inactive) | 6.79 µM (inactive) | 24.1 µM (inactive) | 20 µM (inactive) | 16.7 µM (inactive) | 5.45 µM (inactive) | 16.9 µM (inactive)
COc1ccc(NC(=O)C2=C(SC)C(C#N)C(=O)N=C2N)cc1 (stereo not given) | > 100 µM (inactive) | 46.3 µM (inactive) | 31.2 µM (inactive) | > 100 µM (inactive) | > 100 µM (inactive) | > 100 µM (inactive) | > 100 µM (inactive) | 55.3 µM (inactive) | > 100 µM (inactive) | > 100 µM (inactive) | > 100 µM (inactive) | > 100 µM (inactive) | > 100 µM (inactive) | > 100 µM (inactive) | > 100 µM (inactive) | > 100 µM (inactive) | > 100 µM (inactive) | > 100 µM (inactive) | > 100 µM (inactive)
O=C1c2ccccc2C(O)(O)C1(O)C1(O)C(=O)c2ccccc2C1(O)O (stereo not given) | > 100 µM (inactive) | 29.6 µM (inactive) | 18.9 µM (inactive) | 23.4 µM (inactive) | 16.8 µM (inactive) | > 100 µM (inactive) | 21.7 µM (inactive) | – | 18.8 µM (inactive) | 45.5 µM (inactive) | 51.2 µM (inactive) | 26.6 µM (inactive) | 34.8 µM (inactive) | 24.2 µM (inactive) | > 100 µM (inactive) | 91.8 µM (inactive) | 37.2 µM (inactive) | – | 86.9 µM (inactive)
O=C(CC(C(=O)c1ccsc1)c1cccs1)c1ccccc1 (stereo not given) | 29.9 µM (inactive) | > 100 µM (inactive) | 71.4 µM (inactive) | > 100 µM (inactive) | 45.1 µM (inactive) | 56.8 µM (inactive) | > 100 µM (inactive) | 36.2 µM (inactive) | 36.6 µM (inactive) | 18.3 µM (inactive) | > 100 µM (inactive) | 14 µM (inactive) | 98.9 µM (inactive) | > 100 µM (inactive) | > 100 µM (inactive) | – | 98.9 µM (inactive) | > 100 µM (inactive) | 49.2 µM (inactive)
